{"source": "patent US7998983B2", "about": "“Substituted isoxazoles as fungicides” (Syngenta Limited, priority 2004, dated 2011)", "key": {"[1]": {"tested_on": "leaf rust (Puccinia recondita: PUCCRT)", "assay": "Cereal field trial, leaf rust on wheat", "assay_type": "in vivo", "conditions": "winter wheat field trial; 9.5% emulsifiable concentrate; 140, 280 and 421 g a.i./ha; low natural incidence", "method": "(§1) A field trial of Compound 4 was conducted on soft red winter wheat cultivar Sisson. Very dry weather gave rise to a low natural incidence of leaf rust (Puccinia recondita: PUCCRT) late in the trial. Compound 4 was applied as a 9.5% active ingredient (weight/weight) emulsifiable concentrate of the following formula (each weight/weight): 9.5% Compound 4, 9.5% m-Pyrol, 65% Surfadone LP-100, 6% Surfadone LP-300, 5% Toximul 3463F, and 5% Toximul 3464F. Rates of Compound 4 application were as follows (grams active ingredient per hectare: g a.i./ha): 140, 280 and 421."}, "[2]": {"tested_on": "soft red winter wheat cultivar Sisson", "assay": "Cereal field trial, yield", "assay_type": "in vivo", "conditions": "highest rate of Compound 4 (421 g a.i./ha)", "method": "as §1"}, "[3]": {"tested_on": "Sclerotinia homoeocarpa (common name: dollar spot)", "assay": "Turf trial, dollar spot on creeping bentgrass", "assay_type": "in vivo", "conditions": "creeping bentgrass plots; Compound 4 as 25% wetable powder at 2.2, 4.4, 8.8 g a.i. per 1000 square feet; mean disease <3.0% acceptable", "source_text": "Penncross during the spring."}, "[4]": {"tested_on": "creeping bentgrass cv. Penncross", "assay": "Turf trial, turfgrass quality and phytotoxicity", "conditions": "creeping bentgrass plots inoculated with S. homoeocarpa; ratings >6.0 acceptable", "experimental": "A fungicide trial was conducted on a 15-yr-old sward of creeping bentgrass cv. Penncross during the spring. The turfgrass was maintained using cultural practices similar to those used in maintenance of bentgrass golf greens in the southern United States. Treatments were arranged as plots (0.5×1.0 m) in a randomized complete block design with four replications. […] All other fungicides were applied according to their labels (Banner MAXX 1.3ME and Insignia 20WG). The turfgrass was inoculated with autoclaved tall fescue seed infested with Sclerotinia homoeocarpa (common name: dollar spot) six hours after application of the initial preventive treatments. The plots received approximately 0.24 inches of irrigation water daily at 1700 hour to ensure nightly foliar wetness for infection. The Horsfall-Barratt rating scale was used to visually estimate disease severity at approximately 7-day intervals from the initial application date. Turfgrass quality was assessed using a 0-9 scale where 0=a necrotic, thin foliar canopy and 9=a dark green, dense foliar canopy. Disease and quality values were subjected to analysis of variance and means were statistically separated using the Scott-Knott cluster analysis procedure."}}}
{"compound": "OC(c1cccnc1)c1c(-c2ccc(Cl)cc2Cl)noc1-c1cccc(Cl)c1", "note": "(stereo not shown) [Compound 4, 5-(3-Chlorophenyl)-3-(2,4-dichlorophenyl)-4-[(3-pyridyl)hydroxymethyl]-isoxazole]", "values": [{"measurement": "Control of leaf rust incidence", "setting": "[1]", "result": "good control of the rust incidence"}, {"measurement": "Yield enhancement", "setting": "[2]", "result": "Yield enhancement was observed"}, {"measurement": "Dollar spot disease severity / control (Horsfall-Barratt rating)", "setting": "[3]", "result": "effective control on dollar spot during most of the trial period"}, {"measurement": "Turfgrass quality (0-9 scale)", "setting": "[4]", "result": "Highest quality ratings"}]}
